Source: patent US9777001B2 (priority 2014, dated 2017)
Structures can show the parent of a compound that is named as a salt.

The compounds below were run against human Factor XIa (Homo sapiens, UniProt P03951) (assay: biochemical). Conditions: purified human Factor XIa, substrate S-2366, HEPES buffer pH 7.4.
human Factor XIa, sequence (P03951 388-625 limits assumed): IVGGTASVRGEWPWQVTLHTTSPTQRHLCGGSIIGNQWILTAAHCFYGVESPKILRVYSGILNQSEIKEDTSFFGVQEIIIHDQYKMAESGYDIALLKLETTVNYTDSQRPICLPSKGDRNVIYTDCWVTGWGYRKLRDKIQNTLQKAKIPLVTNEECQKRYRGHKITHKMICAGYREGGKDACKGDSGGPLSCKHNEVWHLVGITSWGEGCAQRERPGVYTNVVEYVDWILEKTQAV
human Factor XIa, sequence (P03951 19-387 partner limits assumed): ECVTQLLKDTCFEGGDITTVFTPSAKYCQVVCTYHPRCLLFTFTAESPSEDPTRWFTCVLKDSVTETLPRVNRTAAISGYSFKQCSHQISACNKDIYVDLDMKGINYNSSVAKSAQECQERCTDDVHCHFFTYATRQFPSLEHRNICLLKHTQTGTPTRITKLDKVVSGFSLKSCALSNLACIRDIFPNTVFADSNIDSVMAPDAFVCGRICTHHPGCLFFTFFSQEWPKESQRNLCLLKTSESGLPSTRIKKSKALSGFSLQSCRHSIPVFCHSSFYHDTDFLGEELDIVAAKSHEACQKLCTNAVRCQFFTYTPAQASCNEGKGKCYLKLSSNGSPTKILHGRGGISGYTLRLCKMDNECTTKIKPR

| Structure (SMILES) | Ki [nM] |
| --- | --- |
| C[C@@H]1CCC[C@H](n2cnc(-c3c(-n4cnnn4)ccc(Cl)c3F)cc2=O)c2cc(ccn2)-c2cc(F)ccc2NC1=O [Example 35, (10R,14S)-14-{4-[3-chloro-2-fluoro-6-(1H-1,2,3,4-tetrazol-1-yl)phenyl]-6-oxo-1,6-dihydropyrimidin-1-yl}-4-fluoro-10-methyl-8,16-diazatricyclo[13.3.1.0^2,7]nonadeca-1(19),2(7),3,5,15,17-hexaen-9-one trifluoroacetate] | 0.1 |
| C[C@@H]1CCC[C@H](n2cnc(-c3cc(Cl)ccc3-n3cc(C(F)(F)F)nn3)cc2=O)c2cc(ccn2)-c2ccc(C#N)cc2NC1=O [Example 43, (10R,14S)-14-(4-{5-chloro-2-[4-(trifluoromethyl)-1H-1,2,3-triazol-1-yl]phenyl}-6-oxo-1,6-dihydropyrimidin-1-yl)-10-methyl-9-oxo-8,16-diazatricyclo [13.3.1.0^2,7]nonadeca-1(19),2(7),3,5,15,17-hexaene-5-carbonitrile trifluoroacetate] | 3 |
| C[C@@H]1CCC[C@H](n2cnc(-c3cc(Cl)ccc3F)cc2=O)c2cc(ccn2)-c2cc(F)ccc2NC1=O [Example 50, (10R,14S)-14-[4-(5-chloro-2-fluorophenyl)-6-oxo-1,6-dihydropyrimidin-1-yl]-4-fluoro-10-methyl-8,16-diazatricyclo[13.3.1.0^2,7]nonadeca-1(19),2(7),3,5,15,17-hexaen-9-one trifluoroacetate] | 290 |
| C[C@@H]1CCC[C@H](n2cnc(-c3cc(Cl)ccc3-n3cc(Cl)nn3)cc2=O)c2cc(ccn2)-c2ccccc2NC1=O [Example 57, (10R,14S)-14-{4-[5-chloro-2-(4-chloro-1H-1,2,3-triazol-1-yl)phenyl]-6-oxo-1,6-dihydropyrimidin-1-yl}-10-methyl-8,16-diazatricyclo[13.3.1.0^2,7]nonadeca-1(19),2,4,6,15,17-hexaen-9-one] | 0.28 |
| C[C@@H]1CCC[C@H](n2cnc(-c3cc(Cl)ccc3-n3cc(Cl)nn3)cc2=O)c2cc(ccn2)-c2cc(S(C)(=O)=O)ccc2NC1=O [Example 67, (10R,14S)-14-{4-[5-chloro-2-(4-chloro-1H-1,2,3-triazol-1-yl)phenyl]-6-oxo-1,6-dihydropyrimidin-1-yl}-4-methanesulfonyl-10-methyl-8,16-diazatricyclo [13.3.1.0^2,7]nonadeca-1(19),2(7),3,5,15,17-hexaen-9-one] | 11 |
| COC(=O)c1ccc(Cl)cc1-c1cc(=O)n([C@H]2CCC[C@@H](C)C(=O)Nc3ccc(F)cc3-c3ccnc2c3)cn1 [Example 68, methyl 4-chloro-2-{1-[(10R,14S)-4-fluoro-10-methyl-9-oxo-8,16-diazatricyclo[13.3.1.0^2,7]nonadeca-1(19),2(7),3,5,15,17-hexaen-14-yl]-6-oxo-1,6-dihydropyrimidin-4-yl}benzoate] | 39 |
| C[C@@H]1CCC[C@H](n2cnc(-c3cc(Cl)ccc3-n3cc(C#N)nn3)cc2=O)c2cc(ccn2)-c2ccc(C(F)F)cc2NC1=O [Example 70, 1-(4-chloro-2-{1-[(10R,14S)-5-(difluoromethyl)-10-methyl-9-oxo-8,16-diazatricyclo[13.3.1.0^2,7]nonadeca-1(19),2(7),3,5,15,17-hexaen-14-yl]-6-oxo-1,6-dihydropyrimidin-4-yl}phenyl)-1H-1,2,3-triazole-4-carbonitrile] | 0.26 |
| Cc1ccc2c(c1)NC(=O)[C@H](C)CCC[C@H](n1cnc(-c3cc(Cl)ccc3-n3cc(C(F)(F)F)nn3)cc1=O)c1cc-2ccn1 [Example 78, (10R,14S)-14-(4-{5-chloro-2-[4-(trifluoromethyl)-1H-1,2,3-triazol-1-yl]phenyl}-6-oxo-1,6-dihydropyrimidin-1-yl)-5,10-dimethyl-8,16-diazatricyclo [13.3.1.0^2,7]nonadeca-1(19),2(7),3,5,15,17-hexaen-9-one] | 0.42 |
| C[C@@H]1CCC[C@H](n2cnc(-c3cc(Cl)ccc3-n3cc(Cl)nn3)cc2=O)c2cc(ccn2)-c2ccc(O)cc2NC1=O [Example 85, (10R,14S)-14-{4-[5-chloro-2-(4-chloro-1H-1,2,3-triazol-1-yl)phenyl]-6-oxo-1,6-dihydropyrimidin-1-yl}-5-hydroxy-10-methyl-8,16-diazatricyclo[13.3.1.0^2,7]nonadeca-1(19),2(7),3,5,15,17-hexaen-9-one trifluoroacetate] | 0.1 |
| C[C@@H]1CCC[C@H](n2cnc(-c3cc(Cl)ccc3-n3cc(Cl)nn3)cc2=O)c2cc(ccn2)-c2ccc(C(F)(F)C(N)=O)cc2NC1=O [Example 90, 2-[(10R,14S)-14-{4-[5-chloro-2-(4-chloro-1H-1,2,3-triazol-1-yl)phenyl]-6-oxo-1,6-dihydropyrimidin-1-yl}-10-methyl-9-oxo-8,16-diazatricyclo[13.3.1.0^2,7]nonadeca-1(19),2(7),3,5,15,17-hexaen-5-yl]-2,2-difluoroacetamide trifluoroacetate] | 7.1 |

The compounds below were run against human plasma kallikrein (Homo sapiens, UniProt P03952) (assay: biochemical). Conditions: purified human plasma kallikrein, substrate S-2302, sodium phosphate buffer pH 7.5.
human plasma kallikrein, sequence (P03952 391-638 limits assumed): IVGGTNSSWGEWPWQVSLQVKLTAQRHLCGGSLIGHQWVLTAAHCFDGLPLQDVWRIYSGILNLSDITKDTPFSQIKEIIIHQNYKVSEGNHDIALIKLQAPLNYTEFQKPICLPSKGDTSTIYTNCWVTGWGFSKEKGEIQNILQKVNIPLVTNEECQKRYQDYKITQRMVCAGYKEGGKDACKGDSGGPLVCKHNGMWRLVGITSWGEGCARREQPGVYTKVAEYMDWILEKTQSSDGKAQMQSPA
human plasma kallikrein, sequence (P03952 20-390 partner limits assumed): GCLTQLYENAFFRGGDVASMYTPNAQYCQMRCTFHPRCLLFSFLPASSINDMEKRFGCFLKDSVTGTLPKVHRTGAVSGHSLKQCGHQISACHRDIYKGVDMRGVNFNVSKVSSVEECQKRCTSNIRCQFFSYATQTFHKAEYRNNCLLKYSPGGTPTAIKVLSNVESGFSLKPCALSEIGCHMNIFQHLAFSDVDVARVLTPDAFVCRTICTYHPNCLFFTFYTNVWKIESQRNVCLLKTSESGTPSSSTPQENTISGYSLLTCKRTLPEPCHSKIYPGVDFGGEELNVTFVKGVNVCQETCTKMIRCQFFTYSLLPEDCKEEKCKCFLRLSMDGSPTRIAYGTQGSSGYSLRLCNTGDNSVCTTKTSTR

| Structure (SMILES) | Ki [nM] |
| --- | --- |
| COC(=O)Nc1ccc2c(c1)CCCCCC[C@H](n1cnc(-c3cc(Cl)ccc3-n3cnnn3)cc1=O)c1nc-2c[nH]1 [Example 132, methyl N-[(14S)-14-{4-[5-chloro-2-(1H-1,2,3,4-tetrazol-1-yl)phenyl]-6-oxo-1,6-dihydropyrimidin-1-yl}-16,18-diazatricyclo[13.2.1.0^2,7]octadeca-1(17),2,4,6,15(18)-pentaen-5-yl]carbamate trifluoroacetate] | 340 |
| C[C@@H]1CCC[C@H](n2cnc(-c3cc(Cl)ccc3-n3cc(C(F)(F)F)nn3)cc2=O)c2cc(ccn2)-c2cc(F)ccc2NC1=O [Example 135, (10R,14S)-14-(4-{5-chloro-2-[4-(trifluoromethyl)-1H-1,2,3-triazol-1-yl]phenyl}-6-oxo-1,6-dihydropyrimidin-1-yl)-4-fluoro-10-methyl-8,16-diazatricyclo [13.3.1.0^2,7]nonadeca-1(19),2(7),3,5,15,17-hexaen-9-one trifluoroacetate] | 29 |
| CCOc1cn(-c2ccc(Cl)c(F)c2-c2cc(=O)n([C@H]3CCC[C@@H](C)C(=O)Nc4ccc(F)cc4-c4ccnc3c4)cn2)nn1 [Example 136, (10R,14S)-14-{4-[3-chloro-6-(4-ethoxy-1H-1,2,3-triazol-1-yl)-2-fluorophenyl]-6-oxo-1,6-dihydropyrimidin-1-yl}-4-fluoro-10-methyl-8,16-diazatricyclo [13.3.1.0^2,7]nonadeca-1(19),2(7),3,5,15,17-hexaen-9-one trifluoroacetate] | 76 |
| Cc1cn(-c2ccc(Cl)c(F)c2-c2cc(=O)n([C@H]3CCC[C@@H](C)C(=O)Nc4ccc(F)cc4-c4ccnc3c4)cn2)nn1 [Example 137, (10R,14S)-14-{4-[3-chloro-2-fluoro-6-(4-methyl-1H-1,2,3-triazol-1-yl)phenyl]-6-oxo-1,6-dihydropyrimidin-1-yl}-4-fluoro-10-methyl-8,16-diazatricyclo[13.3.1.0^2,7]nonadeca-1(19),2(7),3,5,15,17-hexaen-9-one] | 12 |
| C[C@@H]1CCC[C@H](n2cnc(-c3cc(Cl)ccc3-n3cc(O)nn3)cc2=O)c2cc(ccn2)-c2cc(F)ccc2NC1=O [Example 139, (10R,14S)-14-{4-[5-chloro-2-(4-hydroxy-1H-1,2,3-triazol-1-yl)phenyl]-6-oxo-1,6-dihydropyrimidin-1-yl}-4-fluoro-10-methyl-8,16-diazatricyclo[13.3.1.0^2,7]nonadeca-1(19),2(7),3,5,15,17-hexaen-9-one trifluoroacetate] | 510 |
| C[C@@H]1CCC[C@H](n2cnc(-c3cc(Cl)ccc3C(F)(F)F)cc2=O)c2cc(ccn2)-c2cc(F)ccc2NC1=O [Example 141, (10R,14S)-14-{4-[5-chloro-2-(trifluoromethyl)phenyl]-6-oxo-1,6dihydropyrimidin-1-yl}-4-fluoro-10-methyl-8,16-diazatricyclo[13.3.1.0^2,7]nonadeca-1(19),2(7),3,5,15,17-hexaen-9-one trifluoroacetate] | 580 |
| CCOc1cn(-c2ccc(Cl)cc2-c2cc(=O)n([C@H]3CCC[C@@H](C)C(=O)Nc4ccc(F)cc4-c4ccnc3c4)cn2)nn1 [Example 144, (10R,14S)-14-{4-[5-chloro-2-(4-ethoxy-1H-1,2,3-triazol-1-yl)phenyl]-6-oxo-1,6-dihydropyrimidin-1-yl}-4-fluoro-10-methyl-8,16-diazatricyclo[13.3.1.0^2,7]nonadeca-1(19),2(7),3,5,15,17-hexaen-9-one trifluoroacetate] | 210 |
| C[C@@H]1CCC[C@H](n2cnc(-c3cc(Cl)ccc3OC(F)(F)F)cc2=O)c2cc(ccn2)-c2cc(F)ccc2NC1=O [Example 146, (10R,14S)-14-{4-[5-chloro-2-(trifluoromethoxy)phenyl]-6-oxo-1,6-dihydropyrimidin-1-yl}-4-fluoro-10-methyl-8,16-diazatricyclo[13.3.1.0^2,7]nonadeca-1(19),2(7),3,5,15,17-hexaen-9-one trifluoroacetate] | 3800 |
| C[C@@H]1CCC[C@H](n2cnc(-c3c(Cl)ccc(Cl)c3F)cc2=O)c2cc(ccn2)-c2cc(F)ccc2NC1=O [Example 147, (10R,14S)-14-[4-(3,6-dichloro-2-fluorophenyl)-6-oxo-1,6-dihydropyrimidin-1-yl]-4-fluoro-10-methyl-8,16-diazatricyclo[13.3.1.0^2,7]nonadeca-1(19),2(7),3,5,15,17-hexaen-9-one trifluoroacetate] | 210 |
| C[C@@H]1CCC[C@H](n2cnc(-c3cc(Cl)ccc3-n3cc(C(N)=NO)nn3)cc2=O)c2cc(ccn2)-c2cc(F)ccc2NC1=O [Example 149, 1-(4-chloro-2-{1-[(10R,14S)-4-fluoro-10-methyl-9-oxo-8,16-diazatricyclo [13.3.1.0^2,7]nonadeca-1(19),2(7),3,5,15,17-hexaen-14-yl]-6-oxo-1,6-dihydropyrimidin-4-yl}phenyl)-N-hydroxy-1H-1,2,3-triazole-4-carboximidamide bis-trifluoroacetate] | 38 |
